Assay results reported in patent US20220183294A1, “PESTICIDALLY ACTIVE AZOLE AMIDE COMPOUNDS” (SYNGENTA CROP PROTECTION AG, priority 2019, published 2022).

Assays:
Assay type in all cases: in vivo
[1] = tested on: Diabrotica balteata (Corn root worm); assay: Example B1: Diabrotica balteata (Corn root worm), sprayed maize sprouts; settings: 96 h, application rate 200 ppm, L2 larvae, 4 days after infestation, read-out: control in at least one of the two categories (mortality or growth inhibition)
Procedure: Example B1: Diabrotica balteata (Corn root worm)
Maize sprouts placed onto an agar layer in 24-well microtiter plates were treated with aqueous test solutions prepared from 10′000 ppm DMSO stock solutions by spraying. After drying, the plates were infested with L2 larvae (6 to 10 per well). The samples were assessed for mortality and growth inhibition in comparison to untreated samples 4 days after infestation.
(§1) The following compounds gave an effect of at least 80% control in at least one of the two categories (mortality or growth inhibition) at an application rate of 200 ppm: […]

[2] = tested on: Chilo suppressalis (Striped rice stemborer); assay: Example B4: Chilo suppressalis (Striped rice stemborer), artificial diet; settings: 144 h, application rate 200 ppm, L2 larvae, 6 days after infestation, read-out: control in at least one of the three categories (mortality, anti-feedant effect, or growth inhibition)
Procedure: Example B4: Chilo suppressalis (Striped rice stemborer) 24-well microtiter plates with artificial diet were treated with aqueous test solutions prepared from 10′000 ppm DMSO stock solutions by pipetting. After drying, the plates were infested with L2 larvae (6-8 per well). The samples were assessed for mortality, anti-feeding effect, and growth inhibition in comparison to untreated samples 6 days after infestation. Control of Chilo suppressalis by a test sample is given when at least one of the categories mortality, anti-feedant effect, and growth inhibition is higher than the untreated sample.

[3] = tested on: Plutella xylostella (Diamond back moth); assay: Example B5: Plutella xylostella (Diamond back moth), artificial diet, 24-well; settings: 192 h, application rate 200 ppm, eggs, 8 days after infestation, read-out: control in at least one of the two categories (mortality or growth inhibition)
Procedure: Example B5: Plutella xylostella (Diamond back moth)
24-well microtiter plates with artificial diet were treated with aqueous test solutions prepared from 10′000 ppm DMSO stock solutions by pipetting. After drying, Plutella eggs were pipetted through a plastic stencil onto a gel blotting paper and the plate was closed with it. The samples were assessed for mortality and growth inhibition in comparison to untreated samples 8 days after infestation.
as §1

[4] = tested on: Myzus persicae (Green peach aphid); assay: Example B8: Myzus persicae (Green peach aphid): Intrinsic activity; settings: 120 h, test rate 12 ppm, 5 days after infestation
Text: Example B8: Myzus persicae (Green peach aphid): Intrinsic activity
Test compounds prepared from 10′000 ppm DMSO stock solutions were applied by pipette into 24-well microtiter plates and mixed with sucrose solution. The plates were closed with a stretched Parafilm. A plastic stencil with 24 holes was placed onto the plate and infested pea seedlings were placed directly on the Parafilm. The infested plate was closed with a gel blotting paper and another plastic stencil and then turned upside down. The samples were assessed for mortality 5 days after infestation.

[5] = tested on: Spodoptera littoralis (Egyptian cotton leaf worm); assay: Example B9: Spodoptera littoralis (Egyptian cotton leaf worm), sprayed cotton leaf discs; settings: foliar, 72 h, application rate 200 ppm, L1 larvae, 3 days after infestation, read-out: control in at least one of the three categories (mortality, anti-feedant effect, or growth inhibition)
Procedure: Example B9: Spodoptera littoralis (Egyptian cotton leaf worm)
Cotton leaf discs were placed onto agar in 24-well microtiter plates and sprayed with aqueous test solutions prepared from 10′000 ppm DMSO stock solutions. After drying the leaf discs were infested with five L1 larvae. The samples were assessed for mortality, anti-feeding effect, and growth inhibition in comparison to untreated samples 3 days after infestation. Control of Spodoptera littoralis by a test sample is given when at least one of the categories mortality, anti-feedant effect, and growth inhibition is higher than the untreated sample.

[6] = tested on: Frankliniella occidentalis (Western flower thrips); assay: Example B3: Frankliniella occidentalis (Western flower thrips): Feeding/contact activity; settings: 168 h, application rate 200 ppm, population of mixed ages, 7 days after infestation
Procedure: Example B3: Frankliniella occidentalis (Western flower thrips):Feeding/contact activity
Sunflower leaf discs were placed on agar in 24-well microtiter plates and sprayed with aqueous test solutions prepared from […] stock solutions. After drying the leaf discs were infested with a Frankliniella population of mixed ages. The samples were assessed for mortality 7 days after infestation.

[7] = tested on: Spodoptera littoralis (Egyptian cotton leaf worm); assay: Example B10: Spodoptera littoralis (Egyptian cotton leaf worm), uptake by lettuce roots from agar; settings: 144 h, test rate 12.5 ppm, eggs, 6 days after infestation, read-out: control in at least one of the three categories (mortality, anti-feeding, or growth inhibition)
Text: Example B10: Spodoptera littoralis (Egyptian cotton leaf worm)
Test compounds were applied by pipette from 10′000 ppm DMSO stock solutions into 24-well plates and mixed with agar. Lettuce seeds were placed onto the agar and the multi well plate was closed by another plate which contained also agar. After 7 days the compound was absorbed by the roots and the lettuce grew into the lid plate. The lettuce leaves were then cut off into the lid plate. Spodoptera eggs were pipetted through a plastic stencil onto a humid gel blotting paper and the lid plate was closed with it. The samples were assessed for mortality, anti-feedant effect and growth inhibition in comparison to untreated samples 6 days after infestation.
The following compounds gave an effect of at least 80% control in at least one of the three categories (mortality, anti-feeding, or growth inhibition) at a test rate of 12.5 ppm: […]

[8] = tested on: Plutella xylostella (Diamondback Moth); assay: Example B13: Plutella xylostella (Diamondback Moth), artificial diet, 96-well; settings: 216 h, application rate 500 ppm, eggs/L1 larvae, 9 days after infestation
Procedure: Example B13: Plutella xylostella (Diamondback Moth)
96-well microtiter plates containing artificial diet were treated with aqueous test solutions, prepared from 10′000 ppm DMSO stock solutions, by a liquid handling robot. After drying, eggs (-30 per well) were infested onto a netted lid which was suspended above the diet. The eggs hatch and L1 larvae move down to the diet. The samples were assessed for mortality 9 days after infestation.
The following compounds gave an effect of at least 80% mortality at an application rate of 500 ppm: […]

[9] = tested on: Myzus persicae (Green peach aphid); assay: Example B12: Myzus persicae (Green Peach Aphid), 96-well sucrose solution; settings: 120 h, application rate 50 ppm, 5 days after infestation
Text: Example B12: Myzus persicae (Green Peach Aphid)
Test compounds prepared from 10′000 ppm DMSO stock solutions were applied by a liquid handling robot into 96-well microtiter plates and mixed with a sucrose solution. Parafilm was stretched over the 96-well microtiter plate and a plastic stencil with 96 holes was placed onto the plate. Aphids were sieved into the wells directly onto the Parafilm. The infested plates were closed with a gel blotting card and a second plastic stencil and then turned upside down. The samples were assessed for mortality 5 days after infestation.

CC(NC(=O)c1cc(C2CC2)nc(C(F)(F)F)c1)c1ncnn1-c1ncc(OCC(F)F)cn1 (centres unmarked) [P22, 2-cyclopropyl-N-[1-[2-[5-(2,2-difluoroethoxy)pyrimidin-2-yl]-1,2,4-triazol-3-yl]ethyl]-6-(trifluoromethyl)pyridine-4-carboxamide]
≥ 80%: percent control (mortality or growth inhibition) at 200 ppm [1] | percent control (mortality, anti-feedant effect or growth inhibition) at 200 ppm [2] | percent control (mortality or growth inhibition) at 200 ppm [3] | mortality at 12 ppm [4] | percent control (mortality, anti-feedant effect or growth inhibition) at 200 ppm [5]

CC(NC(=O)c1cc(C(F)(F)F)cc(S(=O)(=O)C(F)(F)F)c1)c1ncnn1-c1ccc(C#N)cn1 (centres unmarked) [P5, N-[1-[2-(5-cyano-2-pyridyl)-1,2,4-triazol-3-yl]ethyl]-3-(trifluoromethyl)-5-(trifluoromethylsulfonyl)benzamide]
≥ 80%: percent control (mortality or growth inhibition) at 200 ppm [1] | mortality at 200 ppm [6] | percent control (mortality, anti-feedant effect or growth inhibition) at 200 ppm [2] | percent control (mortality or growth inhibition) at 200 ppm [3] | percent control (mortality, anti-feedant effect or growth inhibition) at 200 ppm [5] | percent control (mortality, anti-feeding or growth inhibition) at 12.5 ppm [7] | mortality at 500 ppm [8]

C[C@H](NC(=O)c1cc(C(F)(F)F)cc(C(F)(F)C2CC2)c1)c1ncnn1-c1ncc(OCC(F)F)cn1 [P7, 3-[cyclopropyl(difluoro)methyl]-N-[(1S)-1-[2-[5-(2,2-difluoroethoxy)pyrimidin-2-yl]-1,2,4-triazol-3-yl]ethyl]-5-(trifluoromethyl) benzamide]
≥ 80%: percent control (mortality, anti-feedant effect or growth inhibition) at 200 ppm [2] | percent control (mortality or growth inhibition) at 200 ppm [3] | percent control (mortality, anti-feedant effect or growth inhibition) at 200 ppm [5] | mortality at 50 ppm [9] | mortality at 500 ppm [8]

C[C@H](NC(=O)c1cc(C(F)(F)F)cc(S(=O)(=O)C(F)(F)F)c1)c1ncnn1-c1ccc(C#N)cn1 [P2, N-[(1S)-1-[2-(5-cyano-2-pyridyl)-1,2,4-triazol-3-yl]ethyl]-3-(trifluoromethyl)-5-(trifluoromethylsulfonyl) benzamide]
≥ 80%: percent control (mortality or growth inhibition) at 200 ppm [1] | percent control (mortality, anti-feedant effect or growth inhibition) at 200 ppm [2] | percent control (mortality or growth inhibition) at 200 ppm [3] | percent control (mortality, anti-feedant effect or growth inhibition) at 200 ppm [5] | percent control (mortality, anti-feeding or growth inhibition) at 12.5 ppm [7] | mortality at 500 ppm [8]

C[C@H](NC(=O)c1cc(C(F)(F)F)nc(C2(C#N)CC2)c1)c1ncnn1-c1ccc(C#N)cn1 [P1, 2-(1-cyanocyclopropyl)-N-[(1S)-1-[2-(5-cyano-2-pyridyl)-1,2,4-triazol-3-yl]ethyl]-6-(trifluoromethyl)pyridine-4-carboxamide]
≥ 80%: percent control (mortality or growth inhibition) at 200 ppm [1] | percent control (mortality, anti-feedant effect or growth inhibition) at 200 ppm [2] | percent control (mortality or growth inhibition) at 200 ppm [3] | percent control (mortality, anti-feedant effect or growth inhibition) at 200 ppm [5] | percent control (mortality, anti-feeding or growth inhibition) at 12.5 ppm [7] | mortality at 500 ppm [8]
